PubChem BioAssay AID248 (DTP/NCI, 2004)
Values joined by “and” are separate entries in the source; they are usually repeats but may differ in a detail not shown here. Equal entries are not always repeated. Toxic doses and inconclusive results are not listed.

Test system: L1210 leukemia ip in BDF1 mice, survival T/C
Assay: NCI In Vivo Anticancer Drug Screen. Data for tumor model L1210 Leukemia (intraperitoneal) in B6D2F1 (BDF1) mice
Conditions: endpoint: mean survival time, higher = longer survival
Summary of the method: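 Mice bearing the transplanted tumor received compound or vehicle. Survival of the treated group was divided by that of the vehicle-treated control group to give the ratio.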

[1] = dose: 100.0 mg/kg/injection, schedule: Q04DX003 (ip), vehicle: saline
[2] = dose: 200.0 mg/kg/injection, schedule: Q04DX003 (ip), vehicle: saline
[3] = dose: 400.0 mg/kg/injection, schedule: Q04DX003 (ip), vehicle: saline
[4] = dose: 100.0 mg/kg/injection, schedule: Q01DX009 (ip), vehicle: saline
[5] = dose: 25.0 mg/kg/injection, schedule: Q01DX009 (ip), vehicle: saline
[6] = dose: 100.0 mg/kg/injection, schedule: Q04DX003 (ip), vehicle: Klucel (hydroxypropylcellulose) (HPC)
[7] = dose: 100.0 mg/kg/injection, schedule: Q04DX003 (ip), vehicle: saline with Tween-80
[8] = dose: 200.0 mg/kg/injection, schedule: Q04DX003 (ip), vehicle: Klucel (hydroxypropylcellulose) (HPC)
[9] = dose: 200.0 mg/kg/injection, schedule: Q04DX003 (ip), vehicle: saline with Tween-80
[10] = dose: 400.0 mg/kg/injection, schedule: Q04DX003 (ip), vehicle: Klucel (hydroxypropylcellulose) (HPC)
[11] = dose: 400.0 mg/kg/injection, schedule: Q04DX003 (ip), vehicle: saline with Tween-80
[12] = dose: 100.0 mg/kg/injection, schedule: Q01DX009 (ip), vehicle: saline with Tween-80
[13] = dose: 200.0 mg/kg/injection, schedule: Q01DX009 (ip), vehicle: saline with Tween-80

Structure (SMILES): O=C1c2ccccc2C(=O)C2OC12 (configuration not stated)
- T/C (dose: 3.0 mg/kg/injection, schedule: Q01DX009 (ip), vehicle: Klucel (hydroxypropylcellulose) (HPC)): 97 % of control
- T/C (dose: 6.0 mg/kg/injection, schedule: Q01DX009 (ip), vehicle: Klucel (hydroxypropylcellulose) (HPC)): 93 % of control
- T/C (dose: 12.0 mg/kg/injection, schedule: Q01DX009 (ip), vehicle: Klucel (hydroxypropylcellulose) (HPC)): 97 % of control
- T/C (dose: 12.5 mg/kg/injection, schedule: Q04DX002 (ip), vehicle: Klucel (hydroxypropylcellulose) (HPC)): 102 % of control
- T/C (dose: 25.0 mg/kg/injection, schedule: Q04DX002 (ip), vehicle: Klucel (hydroxypropylcellulose) (HPC)): 94 % of control
- T/C (dose: 50.0 mg/kg/injection, schedule: Q01DX001 (ip), vehicle: carboxymethylcellulose (CMC)): 98 % of control
- T/C (dose: 50.0 mg/kg/injection, schedule: Q04DX002 (ip), vehicle: Klucel (hydroxypropylcellulose) (HPC)): 97 % of control
- T/C (dose: 100.0 mg/kg/injection, schedule: Q01DX001 (ip), vehicle: carboxymethylcellulose (CMC)): 109 % of control
- T/C (dose: 200.0 mg/kg/injection, schedule: Q01DX001 (ip), vehicle: carboxymethylcellulose (CMC)): 98 % of control
- T/C (dose: 400.0 mg/kg/injection, schedule: Q01DX001 (ip), vehicle: carboxymethylcellulose (CMC)): 104 % of control

Structure (SMILES): O=C1CCCCC1(O)C[N+](=O)[O-] (configuration not stated)
- T/C (dose: 75.0 mg/kg/injection, schedule: Q01DX001 (ip), vehicle: carboxymethylcellulose (CMC)): 96 % of control

Structure (SMILES): CCC1=C(c2ccccc2)OS(=O)(=O)NC1=O
- T/C [1]: 97 % of control
- T/C [2]: 97 % of control
- T/C [3]: 109 % of control

Structure (SMILES): CN(C)c1cc(F)c(C=O)cc1[N+](=O)[O-]
- T/C [4]: 100 % of control
- T/C [1]: 113 % of control
- T/C (dose: 200.0 mg/kg/injection, schedule: Q01DX009 (ip), vehicle: saline): 105 % of control
- T/C [2]: 105 % of control
- T/C (dose: 400.0 mg/kg/injection, schedule: Q01DX009 (ip), vehicle: saline): 100 % of control
- T/C [3]: 98 % of control

Structure (SMILES): CCCCOC(=O)c1nc[nH]c1[N+](=O)[O-]
- T/C (dose: 100.0 mg/kg/injection, schedule: Q01DX001 (ip), vehicle: other): 93 % of control
- T/C (dose: 200.0 mg/kg/injection, schedule: Q01DX001 (ip), vehicle: other): 101 % of control
- T/C (dose: 400.0 mg/kg/injection, schedule: Q01DX001 (ip), vehicle: other): 101 % of control

Structure (SMILES): CC1(C)N=C(N)N=C(N)N1c1cccc(C#N)c1
- T/C (dose: 7.0 mg/kg/injection, schedule: Q01DX009 (ip), vehicle: saline): 118 % of control
- T/C (dose: 10.0 mg/kg/injection, schedule: Q01DX009 (ip), vehicle: saline): 116 % of control
- T/C (dose: 16.0 mg/kg/injection, schedule: Q01DX009 (ip), vehicle: saline): 113 % of control
- T/C (dose: 17.0 mg/kg/injection, schedule: Q01DX009 (ip), vehicle: saline): 108 % of control
- T/C [5]: 123 % of control
- T/C (dose: 37.0 mg/kg/injection, schedule: Q01DX009 (ip), vehicle: saline): 151 % of control and 161 % of control
- T/C (dose: 37.5 mg/kg/injection, schedule: Q01DX009 (ip), vehicle: saline): 120 % of control
- T/C (dose: 56.0 mg/kg/injection, schedule: Q01DX009 (ip), vehicle: saline): 172 % of control
- T/C (dose: 84.5 mg/kg/injection, schedule: Q01DX009 (ip), vehicle: saline): 150 % of control

Structure (SMILES): OC(COc1ccccc1)COc1ccccc1
- T/C [6]: 105 % of control
- T/C [7]: 96 % of control
- T/C [8]: 105 % of control
- T/C [9]: 95 % of control
- T/C [10]: 106 % of control
- T/C [11]: 93 % of control

Structure (SMILES): O=C(OC(C1COCO1)C(O)C1COCO1)c1ccccc1 (configuration not stated)
- T/C (dose: 100.0 mg/kg/injection, schedule: Q01DX001 (ip), vehicle: Klucel (hydroxypropylcellulose) (HPC)): 96 % of control
- T/C (dose: 200.0 mg/kg/injection, schedule: Q01DX001 (ip), vehicle: Klucel (hydroxypropylcellulose) (HPC)): 105 % of control
- T/C (dose: 400.0 mg/kg/injection, schedule: Q01DX001 (ip), vehicle: Klucel (hydroxypropylcellulose) (HPC)): 107 % of control

Structure (SMILES): CCN(CC)C(=O)N(CC)C(=O)CN(C)C
- T/C [1]: 102 % of control
- T/C [2]: 102 % of control
- T/C [3]: 96 % of control

Structure (SMILES): COc1cccc(CN)c1
- T/C [7]: 99 % of control
- T/C [9]: 100 % of control
- T/C [11]: 94 % of control

Structure (SMILES): NC(=S)N/N=C/c1ncccc1O
- T/C (dose: 1.8 mg/kg/injection, schedule: Q01DX Z (ip), vehicle: saline): 111 % of control
- T/C (dose: 2.7 mg/kg/injection, schedule: Q01DX Z (ip), vehicle: saline): 113 % of control
- T/C (dose: 4.1 mg/kg/injection, schedule: Q01DX Z (ip), vehicle: saline): 118 % of control
- T/C (dose: 6.25 mg/kg/injection, schedule: Q01DX015 (ip), vehicle: saline): 122 % of control
- T/C (dose: 6.25 mg/kg/injection, schedule: Q01DX Z (ip), vehicle: saline): 120 % of control
- T/C (dose: 12.5 mg/kg/injection, schedule: Q01DX Z (ip), vehicle: saline): 153 % of control
- T/C (dose: 21.0 mg/kg/injection, schedule: Q03HX032 (ip), vehicle: saline with Tween-80): 119 % of control
- T/C (dose: 25.0 mg/kg/injection, schedule: Q01DX015 (ip), vehicle: saline): 150 % of control
- T/C (dose: 25.0 mg/kg/injection, schedule: Q01DX Z (ip), vehicle: saline): 159 % of control
- T/C (dose: 47.0 mg/kg/injection, schedule: Q03HX032 (ip), vehicle: saline with Tween-80): 120 % of control
- T/C (dose: 50.0 mg/kg/injection, schedule: Q01DX Z (ip), vehicle: saline): 170 % of control
- T/C (dose: 100.0 mg/kg/injection, schedule: Q01DX015 (ip), vehicle: saline): 111 % of control
- T/C (dose: 100.0 mg/kg/injection, schedule: Q01DX Z (ip), vehicle: saline): 165 % of control
- T/C (dose: 100.0 mg/kg/injection, schedule: Q01DX Z (oral), vehicle: saline): 112 % of control
- T/C (dose: 150.0 mg/kg/injection, schedule: Q01DX Z (ip), vehicle: saline): 153 % of control
- T/C (dose: 200.0 mg/kg/injection, schedule: Q01DX015 (ip), vehicle: saline): 94 % of control
- T/C (dose: 335.0 mg/kg/injection, schedule: Q01DX Z (ip), vehicle: saline): 118 % of control
- T/C (dose: 335.0 mg/kg/injection, schedule: Q01DX Z (oral), vehicle: saline): 115 % of control
- T/C (dose: 400.0 mg/kg/injection, schedule: Q01DX015 (ip), vehicle: saline): 90 % of control

Structure (SMILES): CNC(=O)c1ccc(NC(=O)Nc2cccc(C3=NCCN3)c2)cc1NC(=O)Nc1cccc(C2=NCCN2)c1
- T/C (dose: 4.5 mg/kg/injection, schedule: Q01DX Z (ip), vehicle: carboxymethylcellulose (CMC)): 97 % of control
- T/C (dose: 9.0 mg/kg/injection, schedule: Q01DX Z (ip), vehicle: carboxymethylcellulose (CMC)): 113 % of control
- T/C (dose: 36.0 mg/kg/injection, schedule: Q01DX Z (ip), vehicle: carboxymethylcellulose (CMC)): 160 % of control

Structure (SMILES): CCN(CC)C(=O)Oc1cccc(NC(=O)OC)c1
- T/C (dose: 100.0 mg/kg/injection, schedule: Q01DX001 (ip), vehicle: saline with Tween-80): 94 % of control
- T/C (dose: 200.0 mg/kg/injection, schedule: Q01DX001 (ip), vehicle: saline with Tween-80): 94 % of control
- T/C (dose: 400.0 mg/kg/injection, schedule: Q01DX001 (ip), vehicle: saline with Tween-80): 100 % of control

Structure (SMILES): [N-]=[N+]=c1c(=O)c2ccccc2c1=O
- T/C [12]: 103 % of control
- T/C [13]: 97 % of control
- T/C (dose: 400.0 mg/kg/injection, schedule: Q01DX009 (ip), vehicle: saline with Tween-80): 96 % of control

Structure (SMILES): CC1(C)CC(=O)C(c2ccc([N+](=O)[O-])cc2)=C(O)c2ccccc21
- T/C (dose: 50.0 mg/kg/injection, schedule: Q01DX009 (ip), vehicle: saline with Tween-80): 91 % of control
- T/C [12]: 94 % of control
- T/C [13]: 91 % of control

Structure (SMILES): CCCCCC[Si](Br)(CCCCCC)CCCCCC
- T/C [5]: 102 % of control
- T/C (dose: 50.0 mg/kg/injection, schedule: Q01DX009 (ip), vehicle: saline): 102 % of control
- T/C (dose: 100.0 mg/kg/injection, schedule: Q01DX001 (ip), vehicle: saline): 98 % of control
- T/C [4]: 98 % of control
- T/C (dose: 200.0 mg/kg/injection, schedule: Q01DX001 (ip), vehicle: saline): 93 % of control
- T/C (dose: 400.0 mg/kg/injection, schedule: Q01DX001 (ip), vehicle: saline): 96 % of control

Structure (SMILES): CCOC(=O)C1C2OC(=O)C(C(=O)C2P2(=O)OCCN2CCCl)C1c1ccc(OC(C)=O)cc1 (configuration not stated)
- T/C [6]: 108 % of control
- T/C [8]: 95 % of control
- T/C [10]: 108 % of control
